The results in this text go back to the supplement of paper PMC10307832.

Each structure is given as a SMILES string.

The subject of one assay is HCC-827. The assay can be described thus: relative viability (nuclei count vs DMSO), 5 days (fraction); higher = more cells survive. The following applies: first compound 0.6325 µM. The gist of the method: (§1)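 Lung cancer cell lines in 1536-well plates were dosed by pin tool the day after seeding, either with one drug alone or with a fixed anchor-drug dose plus five library-drug doses (not always all listed) in √10 steps. After 5 days, cells were fixed and their nuclei stained in one step (final 0.05% Triton X-100, 1% formaldehyde, 1 ug/ml Hoechst), then counted on 4× images. Relative viability is the nuclei count in treated wells divided by that in vehicle wells. Values are medians of duplicate plates.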
`COCC1(CO)C(=O)C2CCN1CC2` (configuration not stated) [PRIMA-1MET] + C[C@]1(O)C[C@@H](c2nc(-c3ccc4ccc(-c5ccccc5)nc4c3)c3c(N)nccn32)C1 [Linsitinib] (partner 1 µM) displayed a relative viability of 0.884.

In turn, `COCC1(CO)C(=O)C2CCN1CC2` (configuration not stated) [PRIMA-1MET] + Cc1cc(Nc2cc(N3CCN(C)CC3)nc(Sc3ccc(NC(=O)C4CC4)cc3)n2)n[nH]1 [Tozasertib] (partner 0.1 µM) showed a relative viability of 0.387.

Consider `COCC1(CO)C(=O)C2CCN1CC2` (configuration not stated) [PRIMA-1MET] + Cc1nc(NC(=O)N2CCC[C@H]2C(N)=O)sc1-c1ccnc(C(C)(C)C(F)(F)F)c1 [Alpelisib] (partner 2 µM), for which the relative viability is 0.896.

`COCC1(CO)C(=O)C2CCN1CC2` (configuration not stated) [PRIMA-1MET] + C[C@@H](Oc1cc(-c2cnn(C3CCNCC3)c2)cnc1N)c1c(Cl)ccc(F)c1Cl [Crizotinib] (partner 1 µM): the relative viability was 0.813.

Staying with this assay, now noted: first compound 2 µM.
The compound `COCC1(CO)C(=O)C2CCN1CC2` (configuration not stated) [PRIMA-1MET] + O=C(CCCCCCC(=O)Nc1ccccc1)NO [Vorinostat] (partner 1 µM) showed a relative viability of 0.661.

Consider `COCC1(CO)C(=O)C2CCN1CC2` (configuration not stated) [PRIMA-1MET] + C[C@]1(O)C[C@@H](c2nc(-c3ccc4ccc(-c5ccccc5)nc4c3)c3c(N)nccn32)C1 [Linsitinib] (partner 1 µM), for which the relative viability turned out to be 0.698.

Compound `COCC1(CO)C(=O)C2CCN1CC2` (configuration not stated) [PRIMA-1MET] + Cc1cc(Nc2cc(N3CCN(C)CC3)nc(Sc3ccc(NC(=O)C4CC4)cc3)n2)n[nH]1 [Tozasertib] (partner 0.1 µM) displayed a relative viability of 0.376.

In the case of `COCC1(CO)C(=O)C2CCN1CC2` (configuration not stated) [PRIMA-1MET] + Cc1nc(NC(=O)N2CCC[C@H]2C(N)=O)sc1-c1ccnc(C(C)(C)C(F)(F)F)c1 [Alpelisib] (partner 2 µM), the relative viability was 0.877.

The compound `COCC1(CO)C(=O)C2CCN1CC2` (configuration not stated) [PRIMA-1MET] + C[C@@H](Oc1cc(-c2cnn(C3CCNCC3)c2)cnc1N)c1c(Cl)ccc(F)c1Cl [Crizotinib] (partner 1 µM) yielded a relative viability of 0.796.

The assay is the same for the next values; noted with them: first compound 6.325 µM.
Take `COCC1(CO)C(=O)C2CCN1CC2` (configuration not stated) [PRIMA-1MET] + O=C(CCCCCCC(=O)Nc1ccccc1)NO [Vorinostat] (partner 1 µM): the relative viability is 0.816.

As to `COCC1(CO)C(=O)C2CCN1CC2` (configuration not stated) [PRIMA-1MET] + C[C@]1(O)C[C@@H](c2nc(-c3ccc4ccc(-c5ccccc5)nc4c3)c3c(N)nccn32)C1 [Linsitinib] (partner 1 µM), the relative viability is 0.962.

Turning to `COCC1(CO)C(=O)C2CCN1CC2` (configuration not stated) [PRIMA-1MET] + Cc1cc(Nc2cc(N3CCN(C)CC3)nc(Sc3ccc(NC(=O)C4CC4)cc3)n2)n[nH]1 [Tozasertib] (partner 0.1 µM), the relative viability turned out to be 0.399.

Compound `COCC1(CO)C(=O)C2CCN1CC2` (configuration not stated) [PRIMA-1MET] + Cc1nc(NC(=O)N2CCC[C@H]2C(N)=O)sc1-c1ccnc(C(C)(C)C(F)(F)F)c1 [Alpelisib] (partner 2 µM) came in with a relative viability of 0.974.

As to `COCC1(CO)C(=O)C2CCN1CC2` (configuration not stated) [PRIMA-1MET] + C[C@@H](Oc1cc(-c2cnn(C3CCNCC3)c2)cnc1N)c1c(Cl)ccc(F)c1Cl [Crizotinib] (partner 1 µM), the relative viability was 0.978.

The same assay, now with this note: first compound 20 µM.
Consider `COCC1(CO)C(=O)C2CCN1CC2` (configuration not stated) [PRIMA-1MET] + O=C(CCCCCCC(=O)Nc1ccccc1)NO [Vorinostat] (partner 1 µM), for which the relative viability is 0.855.

Consider `COCC1(CO)C(=O)C2CCN1CC2` (configuration not stated) [PRIMA-1MET] + C[C@]1(O)C[C@@H](c2nc(-c3ccc4ccc(-c5ccccc5)nc4c3)c3c(N)nccn32)C1 [Linsitinib] (partner 1 µM), for which the relative viability is 0.906.

The compound `COCC1(CO)C(=O)C2CCN1CC2` (configuration not stated) [PRIMA-1MET] + Cc1cc(Nc2cc(N3CCN(C)CC3)nc(Sc3ccc(NC(=O)C4CC4)cc3)n2)n[nH]1 [Tozasertib] (partner 0.1 µM) displayed a relative viability of 0.379.

Regarding `COCC1(CO)C(=O)C2CCN1CC2` (configuration not stated) [PRIMA-1MET] + Cc1nc(NC(=O)N2CCC[C@H]2C(N)=O)sc1-c1ccnc(C(C)(C)C(F)(F)F)c1 [Alpelisib] (partner 2 µM), the relative viability turned out to be 0.948.

As to `COCC1(CO)C(=O)C2CCN1CC2` (configuration not stated) [PRIMA-1MET] + C[C@@H](Oc1cc(-c2cnn(C3CCNCC3)c2)cnc1N)c1c(Cl)ccc(F)c1Cl [Crizotinib] (partner 1 µM), the relative viability came to 0.896.

For another assay, the system named is 201T. The assay is described as above. Particulars: first compound 0.2 µM. The gist of the method: as §1
In turn, `COCC1(CO)C(=O)C2CCN1CC2` (configuration not stated) [PRIMA-1MET] + O=C(CCCCCCC(=O)Nc1ccccc1)NO [Vorinostat] (partner 1 µM) showed a relative viability of 1.15.

For `COCC1(CO)C(=O)C2CCN1CC2` (configuration not stated) [PRIMA-1MET] + C[C@]1(O)C[C@@H](c2nc(-c3ccc4ccc(-c5ccccc5)nc4c3)c3c(N)nccn32)C1 [Linsitinib] (partner 1 µM), the relative viability was determined as 1.11.

Consider `COCC1(CO)C(=O)C2CCN1CC2` (configuration not stated) [PRIMA-1MET] + Cc1cc(Nc2cc(N3CCN(C)CC3)nc(Sc3ccc(NC(=O)C4CC4)cc3)n2)n[nH]1 [Tozasertib] (partner 0.1 µM), for which the relative viability was 1.12.

Regarding `COCC1(CO)C(=O)C2CCN1CC2` (configuration not stated) [PRIMA-1MET] + Cc1nc(NC(=O)N2CCC[C@H]2C(N)=O)sc1-c1ccnc(C(C)(C)C(F)(F)F)c1 [Alpelisib] (partner 2 µM), the relative viability is 1.04.

`COCC1(CO)C(=O)C2CCN1CC2` (configuration not stated) [PRIMA-1MET] + C[C@@H](Oc1cc(-c2cnn(C3CCNCC3)c2)cnc1N)c1c(Cl)ccc(F)c1Cl [Crizotinib] (partner 1 µM) registered a relative viability of 1.11.

Still in this assay, the particulars now being: first compound 0.6325 µM.
In the case of `COCC1(CO)C(=O)C2CCN1CC2` (configuration not stated) [PRIMA-1MET] + O=C(CCCCCCC(=O)Nc1ccccc1)NO [Vorinostat] (partner 1 µM), the relative viability was 0.676.

The compound `COCC1(CO)C(=O)C2CCN1CC2` (configuration not stated) [PRIMA-1MET] + C[C@]1(O)C[C@@H](c2nc(-c3ccc4ccc(-c5ccccc5)nc4c3)c3c(N)nccn32)C1 [Linsitinib] (partner 1 µM) came in with a relative viability of 1.05.

In turn, `COCC1(CO)C(=O)C2CCN1CC2` (configuration not stated) [PRIMA-1MET] + Cc1cc(Nc2cc(N3CCN(C)CC3)nc(Sc3ccc(NC(=O)C4CC4)cc3)n2)n[nH]1 [Tozasertib] (partner 0.1 µM) showed a relative viability of 0.912.

On to `COCC1(CO)C(=O)C2CCN1CC2` (configuration not stated) [PRIMA-1MET] + Cc1nc(NC(=O)N2CCC[C@H]2C(N)=O)sc1-c1ccnc(C(C)(C)C(F)(F)F)c1 [Alpelisib] (partner 2 µM), for which the relative viability turned out to be 0.971.

`COCC1(CO)C(=O)C2CCN1CC2` (configuration not stated) [PRIMA-1MET] + C[C@@H](Oc1cc(-c2cnn(C3CCNCC3)c2)cnc1N)c1c(Cl)ccc(F)c1Cl [Crizotinib] (partner 1 µM) showed a relative viability of 1.

Staying with this assay, now noted: first compound 2 µM.
In turn, `COCC1(CO)C(=O)C2CCN1CC2` (configuration not stated) [PRIMA-1MET] + O=C(CCCCCCC(=O)Nc1ccccc1)NO [Vorinostat] (partner 1 µM) showed a relative viability of 0.797.

Consider `COCC1(CO)C(=O)C2CCN1CC2` (configuration not stated) [PRIMA-1MET] + C[C@]1(O)C[C@@H](c2nc(-c3ccc4ccc(-c5ccccc5)nc4c3)c3c(N)nccn32)C1 [Linsitinib] (partner 1 µM), for which the relative viability is 0.934.

The compound `COCC1(CO)C(=O)C2CCN1CC2` (configuration not stated) [PRIMA-1MET] + Cc1cc(Nc2cc(N3CCN(C)CC3)nc(Sc3ccc(NC(=O)C4CC4)cc3)n2)n[nH]1 [Tozasertib] (partner 0.1 µM) yielded a relative viability of 0.899.
